US20210283111A1, “Methods of Inhibiting Osteoclastogenesis and Osteoclast Activity” (vTv Therapeutics LLC, priority 2018, published 2021)
“Also recorded” adds a separate entry of the source.

Key:
[1] = system: osteoclast marker genes (Atp6v0d2, Trap, Mmp9, Cathepsin K, Dcstamp, and Oscar) in RANKL-stimulated RAW 264.7 cells; assay: Real-time RT-PCR of osteoclast marker gene expression; type: cell-based, Mouse; conditions: RAW264.7 cells, RANKL + compound 400 nM; for Dcstamp Fold Change from Control (Ave) / ATP6vd2 Fold Change from Control (Ave) / Cathepsin K Fold Change from Control (Ave) / Oscar Fold Change from Control (Ave) / Mmp9 Fold Change from Control (Ave) / TRAP Fold Change from Control (Ave): 4 days; for Dcstamp Fold Change from Control (Ave): Control 1.00, RANKL alone 4.32; for ATP6vd2 Fold Change from Control (Ave): Control 1.00, RANKL alone 4.69; for Cathepsin K Fold Change from Control (Ave): Control 1.00, RANKL alone 7.83; for Oscar Fold Change from Control (Ave): Control 1.00, RANKL alone 23.88; for Mmp9 Fold Change from Control (Ave): Control 1.00, RANKL alone 42.90; for TRAP Fold Change from Control (Ave): Control 1.00, RANKL alone 132.47
Method: (§1) RNA was extracted from RAW264.7 cells using the GenElute mammalian total RNA Miniprep kit (Sigma-Aldrich, St. Louis, Mo.) with on-column genomic DNA digestion according to the manufacturer's instructions. For antioxidant gene expression analysis, RNA was extracted at 1 day after test compound treatment, and the gene expressions of HMOX1 and NQO1 was analyzed. For osteoclast marker gene expression analysis, RNA was extracted at 4 days after RANKL stimulation, and the gene expressions of Atp6v0d2, Cathepsin K, Matrix metalloproteinase 9, Trap, Dcstamp, and Oscar were analyzed. After measurement of the RNA concentration, isolated RNA (500 ng each) was reverse transcribed with iScript cDNA-Supermix (Bio-Rad Laboratories, Hercules, Calif.). Real-time RT-PCR was performed with SsoFast EvaGreen-Supermix (Bio-Rad Laboratories). PCR primers used in the experiments were from PrimerBank and were described in H. Kanzaki, et al. “The Keap1/Nrf2 protein axis plays a role in osteoclast differentiation by regulating intracellular reactive oxygen species signaling,” The Journal of Biological Chemistry 288(32) (2013) 23009-20. Fold changes of gene of interest were calculated by using the […] method with ribosomal protein S18 as reference gene. Data shown are representative of 3 independent experiments performed in triplicate.

[2] = system: RANKL-stimulated RAW264.7 cells; assay: Resorption assay on bone resorption assay plate (calcium phosphate substrate); type: cell-based, Mouse; conditions: for Ave of Resorbed Area per Filed (%): RANKL 100 ng/mL + compound 400 nM, 7 days, Control 0.00, RANKL alone 1.14; for effect on resorption areas: RANKL + compound 400 nM
Method: RAW264.7 cells were plated on synthesized calcium phosphate substrate (bone resorption assay plate; PG Research, Tokyo, Japan) and stimulated with RANKL in the presence or absence of test compounds. After 7 days of cultivation, cells were removed with bleach, and the calcium phosphate substrate was washed with distilled water and then dried. Photographs were taken, and the average of the resorbed area per field was calculated from 12 images of each sample, using ImageJ software (National Institutes of Health, Bethesda).

[3] = system: RANKL-mediated osteoclastogenesis in RAW264.7 cells; assay: Osteoclastogenesis assay: TRAP staining of RANKL-stimulated RAW264.7 cells; type: cell-based, Mouse; conditions: for No. of TRAP-positive multinucleated cells (Cells/Well): RANKL 100 ng/mL + compound 400 nM, 4 days, Control 0.00, RANKL alone 140.00; for effect on number of TRAP-positive multinucleated cells / RANKL-mediated osteoclastogenesis: RANKL 100 ng/mL, compound 400 nM
Method: Cells were plated on 96-well plates (RAW264.7 cells: 10^3 cells/well) in triplicate in the presence or absence of recombinant RANKL (100 ng/ml) with or without the test compounds. After 4 days culture, cells were stained for tartrate-resistant acid phosphatase (TRAP) using an acid phosphatase kit (Sigma-Aldrich, St. Louis, Mo.). Dark red multinucleated cells (>3 nuclei) were counted as TRAP-positive multinucleated cells.

[4] = system: HMOX1 and NQO1 in RAW264.7 cells; assay: Real-time RT-PCR of antioxidant gene expression; type: cell-based, Mouse; conditions: 400 nM
Method: as §1

[5] = system: LPS-mediated bone destruction in mice calvaria; assay: In vivo bone destruction model (LPS-induced calvarial bone destruction, μCT); parameters: species or system BALB/c mice
Method: The animal experimental protocol was reviewed and approved by the Institutional Animal Care and Use committee, Tsurumi University (approval number; 28A030). All animals were treated ethically, and animal experiments were performed in compliance with the Regulations for Animal Experiments and Related Activities at Tsurumi University. The calvarial bone destruction mouse model, induced by repeated LPS injections. Twenty 7-week-old male BALB/c mice (Clea Japan, Tokyo, Japan) were used. Mice were randomly assigned to four groups (n=5 each): a Dimethyl sulfoxide (DMSO)-injected group (control group; 10 μl PBS+2 μl DMSO), a HPP-4-injected group (HPP-4 group; 10 μl PBS+2 μl of Cpd. HPP-4 2 μM), an LPS-induced bone resorption group (LPS group; 10 μl of 1 μg/μl LPS+2 μl DMSO) and an LPS-induced bone resorption and Cpd. HPP-4-injected group (LPS+HPP-4 group; 10 μl of 1 μg/μl LPS+2 μl of HPP-4 2 μM), Injections were performed under anaesthesia with a 30-gauge needle at a point on the midline of the skull located between the eyes on days 1, 3, 5, 7, and 9. On day 11, mice were sacrificed by cervical dislocation and cranial tissue samples were fixed overnight with 4% paraformaldehyde in PBS.
Fixed cranial tissue samples were subsequently scanned with an X-ray microcomputed tomography […] system (inspeXio SMX-225CT; Shimadzu Corp., Kyoto, Japan). After reconstitution, the DICOM files were rendered into three-dimensional images using Pluto software. Percentage of resorbed area, calculated from the ratio of the number of pixels in the resorbed area in the cranial bone to the number of pixels in the total analyzed image of the cranial bone, was calculated with the ImageJ software. The region of interest was set between the fronto-parietal (coronal) suture and parietooccipital (lambdoidal) suture.

[6] = system: RANKL-triggered intracellular ROS production in RAW264.7 cells; assay: Intracellular ROS detection by flow cytometry (BES-So-AM); type: cell-based, Mouse; conditions: pretreated 1 h, RANKL 6 h
Method: Cells were pretreated with or without Compound HPP-4 for 1 h, stimulated with soluble RANKL for 6 h, washed with PBS, and collected. Cells were then incubated with fluorescent superoxide probe (BES-So-AM; Wako Pure Chemical) on ice. After washing, intracellular ROS was detected using an AccuriC6 flow cytometer (BD Biosciences, San Jose, Calif., USA). The viable monocyte/macrophage fraction was gated on a forward scatter/side scatter plot, and ROS levels were monitored in the FL-1 channel. Data shown are representative of 3 independent experiments performed in triplicated.

| SMILES | RANKL-mediated upregulation of osteoclast marker genes [1] | difference from RANKL alone in Atp6v0d2, Mmp9, and Oscar expression [1] | Dcstamp Fold Change from Control (Ave) [1] [Fold Change from Control] | ATP6vd2 Fold Change from Control (Ave) [1] [Fold Change from Control] | Cathepsin K Fold Change from Control (Ave) [1] [Fold Change from Control] | Oscar Fold Change from Control (Ave) [1] [Fold Change from Control] | Mmp9 Fold Change from Control (Ave) [1] [Fold Change from Control] | TRAP Fold Change from Control (Ave) [1] [Fold Change from Control] | Ave of Resorbed Area per Filed (%) [2] [%] | No. of TRAP-positive multinucleated cells (Cells/Well) [3] [Cells/Well] | effect on number of TRAP-positive multinucleated cells / RANKL-mediated osteoclastogenesis [3] | effect on resorption areas [2] | HMOX1 Fold Change from Control (Ave) ([4]; 1 day, Control 1.00) [Fold Change from Control] | NQO1 Fold Change from Control (Ave) ([4]; 1 day, Control 1.00) [Fold Change from Control] | expression of antioxidant enzymes NQO1 and HMOX1 ([4]; p<0.05 relative to control) | LPS-mediated bone destruction ([5]; local injection of HPP-4, μCT) | Percent Resorbed (%), HPP-4 alone ([5]; local injection of HPP-4 without LPS on days 1, 3, 5, 7, 9, μCT day 11, Control 0.15) [%] | Percent Resorbed (%), LPS + HPP-4 ([5]; local injection of LPS + HPP-4 on days 1, 3, 5, 7, 9, μCT day 11, Control 0.15, LPS alone 4.27) [%] | RANKL-mediated increase in intracellular ROS (superoxide) [6] |
| --- | --- | --- | --- | --- | --- | --- | --- | --- | --- | --- | --- | --- | --- | --- | --- | --- | --- | --- | --- |
| COCCNC(=O)c1cnc2c(c1)nc(Nc1nc3ccc(OC(F)(F)F)cc3s1)n2C [HPP-1, 3-Methyl-2-(6-trifluoromethoxy-benzothiazol-2-ylamino)-3H-imidazo[4,5-b]pyridine-6-carboxylic acid (2-methoxy-ethyl)-amide] | weak suppression | no significant differences | 3.33 | 3.52 | 5.96 | 20.22 | 39.73 | 106.62 | 1.21 | 139.33 | no effect |  |  |  |  |  |  |  |  |
| CN(C)C(=O)CNC(=O)c1ccc2c(c1)nc(Nc1nc3ccc(C(F)(F)F)cc3s1)n2C [HPP-2, 1-Methyl-2-(6-trifluoromethyl-benzothiazol-2-ylamino)-1H-benzimidazole-5-carboxylic acid dimethylcarbamoylmethyl-amide] | suppressed |  | 2.55 | 3.09 | 4.42 | 10.03 | 24.02 | 73.81 | 0.78 | 97.67 | no effect |  |  |  |  |  |  |  |  |
| C[C@H](O)CNC(=O)c1ccc2c(c1)nc(Nc1nc3ccc(OC(F)(F)F)cc3s1)n2C [HPP-3, 1-Methyl-2-(6-trifluoromethoxy-benzothiazol-2-ylamino)-1H-benzoimidazole-5-carboxylic acid ((S)-2-hydroxy-propyl)-amide] | suppressed |  | 2.14 | 2.36 | 3.31 | 6.45 | 23.89 | 59.23 | 0.22 | 65.00 | decreased | reduced the resorption areas such that there was no significant difference from control |  |  |  |  |  |  |  |
| Cn1c(Nc2nc3ccc(C(F)(F)F)cc3s2)nc2cc(C(=O)NCCOCCO)ccc21 [HPP-4, 1-Methyl-2-(6-trifluoromethyl-benzothiazol-2-ylamino)-1H-benzoimidazole-5-carboxylic acid [2-(2-hydroxy-ethoxy)-ethyl]-amide] | suppressed |  | 2.39 | 2.59 | 2.99 | 8.18 | 20.21 | 59.76 | 0.23 | 29.00 | decreased the number of TPAP-positive multinucleated cells to that of control | reduced the resorption areas such that there was no significant difference from control | 1.62 | 2.67 | increased | ameliorated LPS-induced bone destruction; also recorded: significantly inhibited LPS-mediated bone destruction | 0.42 | 1.84 | inhibited |
